“And” between values parts separate entries of the source, which are not always exact repeats. Identical values can stand only once. Inconclusive results and toxic doses are left out.
System: BDF1 mice, Lewis lung carcinoma iv, survival T/C
Test: NCI In Vivo Anticancer Drug Screen. Data for tumor model Lewis Lung Carcinoma (intravenous) in B6D2F1 (BDF1) mice
Details: endpoint: median survival time, higher = longer survival
Experimental: The antitumor activity of compounds was measured in mice bearing transplantable tumors. Survival or tumor size were measured and the results are expressed as the measurement made in the treated group (T) divided by the measurement made in the vehicle treated control group (C). The tumor model used in this assay is Lewis Lung Carcinoma (intravenous) in B6D2F1 (BDF1) mice

[1] = dose: 0.75 mg/kg/injection, schedule: Q01DX009 (ip), vehicle: saline
[2] = dose: 1.5 mg/kg/injection, schedule: Q01DX009 (ip), vehicle: saline
[3] = dose: 3.0 mg/kg/injection, schedule: Q01DX009 (ip), vehicle: saline
[4] = dose: 50.0 mg/kg/injection, schedule: Q01DX009 (ip), vehicle: Klucel (hydroxypropylcellulose) (HPC)
[5] = dose: 100.0 mg/kg/injection, schedule: Q01DX009 (ip), vehicle: Klucel (hydroxypropylcellulose) (HPC)
[6] = dose: 50.0 mg/kg/injection, schedule: Q01DX009 (ip), vehicle: saline with Tween-80
[7] = dose: 100.0 mg/kg/injection, schedule: Q01DX009 (ip), vehicle: saline with Tween-80
[8] = dose: 200.0 mg/kg/injection, schedule: Q01DX009 (ip), vehicle: saline with Tween-80
[9] = dose: 2.0 mg/kg/injection, schedule: Q01DX009 (ip), vehicle: saline
[10] = dose: 4.0 mg/kg/injection, schedule: Q01DX009 (ip), vehicle: saline
[11] = dose: 12.5 mg/kg/injection, schedule: Q01DX009 (ip), vehicle: saline with Tween-80
[12] = dose: 25.0 mg/kg/injection, schedule: Q01DX009 (ip), vehicle: saline with Tween-80
[13] = dose: 6.25 mg/kg/injection, schedule: Q01DX009 (ip), vehicle: saline
[14] = dose: 12.5 mg/kg/injection, schedule: Q01DX009 (ip), vehicle: saline
[15] = dose: 25.0 mg/kg/injection, schedule: Q01DX009 (ip), vehicle: saline
[16] = dose: 50.0 mg/kg/injection, schedule: Q01DX009 (ip), vehicle: saline
[17] = dose: 100.0 mg/kg/injection, schedule: Q01DX009 (ip), vehicle: saline
[18] = dose: 200.0 mg/kg/injection, schedule: Q01DX009 (ip), vehicle: saline
[19] = dose: 400.0 mg/kg/injection, schedule: Q01DX009 (ip), vehicle: saline

SMILES: COc1cccc2c1C(=O)c1c(O)c3c(c(O)c1C2=O)C[C@@](O)(/C(C)=N\NC(=O)CO)C[C@@H]3OC1CC(N)C(O)C(C)O1 (stereo partly specified)
- T/C (dose: 0.37 mg/kg/injection, schedule: Q01DX009 (ip), vehicle: saline): 105 % of control
- T/C [1]: 106 % of control
- T/C [2]: 101 % of control
- T/C [3]: 115 % of control
- T/C (dose: 6.0 mg/kg/injection, schedule: Q01DX009 (ip), vehicle: saline): 103 % of control
- T/C (dose: 12.0 mg/kg/injection, schedule: Q01DX009 (ip), vehicle: saline): 105 % of control

SMILES: CSc1ccc2c(c1)C(N1CCN(C)CC1)Cc1ccccc1S2 (stereo unspecified)
- T/C (dose: 1.56 mg/kg/injection, schedule: Q01DX009 (ip), vehicle: saline with Tween-80): 102 % of control

SMILES: S=C(Nc1ccc(Cl)c(Cl)c1)N1c2ccccc2-n2cccc2C1c1cccnc1 (stereo unspecified)
- T/C (dose: 12.5 mg/kg/injection, schedule: Q01DX009 (ip), vehicle: Klucel (hydroxypropylcellulose) (HPC)): 93 % of control and 105 % of control
- T/C (dose: 25.0 mg/kg/injection, schedule: Q01DX009 (ip), vehicle: Klucel (hydroxypropylcellulose) (HPC)): 99 % of control and 91 % of control
- T/C [4]: 98 % of control and 100 % of control
- T/C [5]: 94 % of control and 101 % of control
- T/C (dose: 200.0 mg/kg/injection, schedule: Q01DX009 (ip), vehicle: Klucel (hydroxypropylcellulose) (HPC)): 105 % of control and 110 % of control
- T/C (dose: 400.0 mg/kg/injection, schedule: Q01DX009 (ip), vehicle: Klucel (hydroxypropylcellulose) (HPC)): 115 % of control

SMILES: NC(=S)n1cccn1
- T/C [6]: 99 % of control
- T/C [7]: 94 % of control
- T/C [8]: 103 % of control

SMILES: Cc1c(N)nc([C@H](CC(N)=O)NC[C@H](N)C(N)=O)nc1C(=O)N[C@H](C(=O)N[C@H](C)[C@@H](O)[C@H](C)C(=O)N[C@H](C(=O)NCCc1nc(-c2nc(C(=O)NCCC[S+](C)C)cs2)cs1)[C@@H](C)O)C(OC1OC(CO)C(O)C(O)C1OC1OC(CO)C(O)C(OC(N)=O)C1O)c1cnc[nH]1 (stereo partly specified)
- T/C [9]: 113 % of control
- T/C [10]: 115 % of control
- T/C (dose: 12.0 mg/kg/injection, schedule: Q04DX003 (ip), vehicle: saline): 105 % of control and 115 % of control
- T/C (dose: 18.0 mg/kg/injection, schedule: Q04DX003 (ip), vehicle: saline): 115 % of control (2×) and 116 % of control
- T/C (dose: 27.0 mg/kg/injection, schedule: Q04DX003 (ip), vehicle: saline): 109 % of control
- T/C (dose: 40.0 mg/kg/injection, schedule: Q04DX003 (ip), vehicle: saline): 113 % of control
- T/C (dose: 60.0 mg/kg/injection, schedule: Q04DX003 (ip), vehicle: saline): 115 % of control

SMILES: OCC1OC(n2cnc3cc(Cl)c(Cl)cc32)C(O)C1O (stereo unspecified)
- T/C (dose: 6.25 mg/kg/injection, schedule: Q01DX009 (ip), vehicle: saline with Tween-80): 96 % of control
- T/C [11]: 94 % of control
- T/C [12]: 110 % of control
- T/C [6]: 110 % of control
- T/C [7]: 100 % of control
- T/C [8]: 90 % of control

SMILES: O=C(O)CC(NC(=O)CP(=O)(O)O)C(=O)O (stereo unspecified)
- T/C (dose: 490.0 mg/kg/injection, schedule: Q04DX003 (ip), vehicle: saline): 165 % of control
- T/C (dose: 700.0 mg/kg/injection, schedule: Q04DX003 (ip), vehicle: saline): 100 % of control

SMILES: O=C1C(=O)c2cccnc2-c2ncccc21
- T/C (dose: 0.78 mg/kg/injection, schedule: Q01DX009 (ip), vehicle: Klucel (hydroxypropylcellulose) (HPC)): 116 % of control
- T/C (dose: 1.56 mg/kg/injection, schedule: Q01DX009 (ip), vehicle: Klucel (hydroxypropylcellulose) (HPC)): 91 % of control
- T/C (dose: 3.12 mg/kg/injection, schedule: Q01DX009 (ip), vehicle: Klucel (hydroxypropylcellulose) (HPC)): 100 % of control

SMILES: CC1(C)COCN1COCCOCN1COCC1(C)C
- T/C [13]: 114 % of control
- T/C [14]: 97 % of control
- T/C [15]: 106 % of control
- T/C [16]: 122 % of control
- T/C [17]: 95 % of control

SMILES: Cc1ccc(S(=O)(=O)NC(=O)C2C(=O)CC3(CCCCC3)CC2=O)cc1
- T/C [4]: 105 % of control
- T/C [5]: 101 % of control

SMILES: O=C1NC(O)CCN1C1OC(CO)C(O)C1O (stereo unspecified)
- T/C [14]: 110 % of control
- T/C [15]: 100 % of control
- T/C [16]: 118 % of control
- T/C [17]: 118 % of control
- T/C [18]: 98 % of control
- T/C [19]: 102 % of control
- T/C (dose: 800.0 mg/kg/injection, schedule: Q01DX009 (ip), vehicle: saline): 101 % of control

SMILES: CCN(CC)CCOC(=O)Cc1cccc2c(=O)cc(-c3ccccc3)oc12
- T/C [14]: 109 % of control
- T/C [15]: 105 % of control
- T/C [16]: 105 % of control
- T/C [17]: 101 % of control

SMILES: O=C(NCCN1CC1)C(=O)NCCN1CC1
- T/C (dose: 0.38 mg/kg/injection, schedule: Q01DX009 (ip), vehicle: saline): 108 % of control
- T/C [1]: 110 % of control
- T/C [2]: 120 % of control
- T/C [3]: 101 % of control

SMILES: CC(=O)OCC12C3CC(=O)OC1C(OC(=O)C=C(C)C)C1C(C)=CC(=O)C(OC(C)=O)C1(C)C2C(=O)C(OC(C)=O)C3C (stereo unspecified)
- T/C (dose: 0.25 mg/kg/injection, schedule: Q01DX009 (ip), vehicle: saline): 86 % of control
- T/C (dose: 0.5 mg/kg/injection, schedule: Q01DX009 (ip), vehicle: saline): 107 % of control
- T/C (dose: 1.0 mg/kg/injection, schedule: Q01DX009 (ip), vehicle: saline): 91 % of control
- T/C [9]: 102 % of control
- T/C [10]: 113 % of control

SMILES: CCOC(=O)NC(N)=O
- T/C [6]: 97 % of control
- T/C [7]: 100 % of control
- T/C [8]: 122 % of control
- T/C (dose: 400.0 mg/kg/injection, schedule: Q01DX009 (ip), vehicle: saline with Tween-80): 107 % of control

SMILES: Cc1ncc([N+](=O)[O-])n1CCO
- T/C (dose: 18.75 mg/kg/injection, schedule: Q01DX009 (ip), vehicle: Klucel (hydroxypropylcellulose) (HPC)): 93 % of control
- T/C (dose: 37.5 mg/kg/injection, schedule: Q01DX009 (ip), vehicle: Klucel (hydroxypropylcellulose) (HPC)): 100 % of control
- T/C (dose: 75.0 mg/kg/injection, schedule: Q01DX009 (ip), vehicle: Klucel (hydroxypropylcellulose) (HPC)): 95 % of control
- T/C (dose: 150.0 mg/kg/injection, schedule: Q01DX009 (ip), vehicle: Klucel (hydroxypropylcellulose) (HPC)): 100 % of control
- T/C (dose: 300.0 mg/kg/injection, schedule: Q01DX009 (ip), vehicle: Klucel (hydroxypropylcellulose) (HPC)): 91 % of control
- T/C (dose: 600.0 mg/kg/injection, schedule: Q01DX009 (ip), vehicle: Klucel (hydroxypropylcellulose) (HPC)): 102 % of control

SMILES: COC(OC(CO)C(O)S(=O)(=O)O)C(O)S(=O)(=O)O (stereo unspecified)
- T/C [14]: 105 % of control
- T/C [15]: 106 % of control
- T/C [16]: 102 % of control
- T/C [17]: 99 % of control
- T/C [19]: 90 % of control

SMILES: COC1C(CO)OC(n2cnc3c(=S)nc(N)[nH]c32)C1O (stereo unspecified)
- T/C [4]: 97 % of control
- T/C [5]: 108 % of control

SMILES: O=C1C=CC(=O)N1c1ccc(Cl)cc1
- T/C (dose: 1.25 mg/kg/injection, schedule: Q01DX009 (ip), vehicle: Klucel (hydroxypropylcellulose) (HPC)): 100 % of control
- T/C (dose: 2.5 mg/kg/injection, schedule: Q01DX009 (ip), vehicle: Klucel (hydroxypropylcellulose) (HPC)): 95 % of control
- T/C (dose: 5.0 mg/kg/injection, schedule: Q01DX009 (ip), vehicle: Klucel (hydroxypropylcellulose) (HPC)): 96 % of control
- T/C (dose: 10.0 mg/kg/injection, schedule: Q01DX009 (ip), vehicle: Klucel (hydroxypropylcellulose) (HPC)): 107 % of control

SMILES: O=C(/C=C(\Cl)C(=O)NO)NO
- T/C [13]: 124 % of control
- T/C [14]: 105 % of control
- T/C [15]: 105 % of control
- T/C [16]: 110 % of control
- T/C [17]: 115 % of control
- T/C [18]: 104 % of control

SMILES: C=CC(=O)NCNC(=O)C=C
- T/C [13]: 90 % of control
- T/C [14]: 102 % of control and 113 % of control
- T/C [15]: 98 % of control and 104 % of control
- T/C [16]: 97 % of control and 98 % of control
- T/C [17]: 101 % of control and 110 % of control

SMILES: O=S(=O)(N=N/C=C1\C=CC=CN1O)c1cccs1
- T/C [11]: 105 % of control
- T/C [12]: 115 % of control
- T/C [6]: 100 % of control
- T/C [7]: 92 % of control

SMILES: CCCNC1=C(C)C(=O)C2=C(C1=O)[C@H](COC(N)=O)[C@]1(OC)[C@@H]3N[C@@H]3CN21
- T/C (dose: 0.39 mg/kg/injection, schedule: Q01DX009 (ip), vehicle: saline): 104 % of control
- T/C (dose: 0.78 mg/kg/injection, schedule: Q01DX009 (ip), vehicle: saline): 100 % of control
- T/C (dose: 1.56 mg/kg/injection, schedule: Q01DX009 (ip), vehicle: saline): 102 % of control
- T/C (dose: 3.12 mg/kg/injection, schedule: Q01DX009 (ip), vehicle: saline): 108 % of control
